Assay results reported in ChEMBL document CHEMBL1145685, “In vitro and in vivo antiplasmodial activity of cryptolepine and related alkaloids from Cryptolepis sanguinolenta” (J Nat Prod, 1997).
Values after ≈ are worked out from the molar mass of the structure shown.

Assays:
[1] = tested on: Plasmodium falciparum; assay: Antiplasmodial activity against Plasmodium falciparum K1 infected human erythrocytes by [3H]hypoxanthine uptake; assay type: functional, organism-based
[2] = tested on: Plasmodium falciparum; assay: Antiplasmodial activity against chloroquine-resistant Plasmodium falciparum W2 infected human erythrocytes by [3H]hypoxanthine uptake; assay type: functional, organism-based
[3] = tested on: Plasmodium falciparum; assay: Antiplasmodial activity against chloroquine-sensitive Plasmodium falciparum D6 infected human erythrocytes by [3H]hypoxanthine uptake; assay type: functional, organism-based
[4] = tested on: Plasmodium berghei; assay: Antimalarial activity as reduced parasitaemia against Plasmodium berghei infected Swiss albino mice (Mus musculus) at 50 mg/kg/day peroral dose for 4 days; assay type: functional; parameters: scale not given: the % may be the effect or the level left; settings: route oral
[5] = tested on: Plasmodium berghei; assay: Antimalarial activity as reduced parasitaemia against Plasmodium berghei infected Swiss albino mice (Mus musculus) at 5 mg/kg/day peroral dose for 4 days; assay type: functional; parameters: scale not given: the % may be the effect or the level left; settings: route oral
[6] = tested on: Plasmodium yoelii; assay: Antimalarial activity as reduced parasitaemia against Plasmodium berghei yoelii infected Swiss albino mice (Mus musculus) at 5 mg/kg/day peroral dose for 4 days; assay type: functional; parameters: scale not given: the % may be the effect or the level left; settings: route oral
[7] = tested on: Plasmodium yoelii; assay: Antimalarial activity as reduced parasitaemia against Plasmodium berghei yoelii infected Swiss albino mice (Mus musculus) at 50 mg/kg/day peroral dose for 4 days; assay type: functional; parameters: scale not given: the % may be the effect or the level left; settings: route oral

Row | Structure (SMILES) | IC50 [1] | IC50 [2] | IC50 [3] | Activity [4] | Activity [5] | Activity [6] | Activity [7]
1 | C[C@@H]1CC[C@H]2[C@@H](C)C(=O)O[C@@H]3O[C@@]4(C)CC[C@@H]1[C@]32OO4 [ARTEMISININ] | 0.0033 µg/mL (≈ 0.0117 µM) | 0.0027 µg/mL (≈ 0.00956 µM) | 0.0025 µg/mL (≈ 0.00885 µM) |  |  |  | 
2 | Cn1c2c3ccccc3nc-2c(O)c2ccccc21 [HYDROXYCRYPTOLEPINE] | 0.045 µg/mL (≈ 0.181 µM) | 0.059 µg/mL (≈ 0.238 µM) | 0.031 µg/mL (≈ 0.125 µM) | 43.2% |  |  | 
3 | C=C[C@H]1CN2CC[C@H]1C[C@H]2[C@H](O)c1ccnc2ccc(OC)cc12 [QUININE] | 0.0352 µg/mL (≈ 0.108 µM) |  | 0.0176 µg/mL (≈ 0.0542 µM) |  |  |  | 
4 | OC(c1cc(C(F)(F)F)nc2c(C(F)(F)F)cccc12)C1CCCCN1 (stereo unspecified) [MEFLOQUINE] |  | 0.0051 µg/mL (≈ 0.0135 µM) | 0.0063 µg/mL (≈ 0.0167 µM) |  |  |  | 
5 | Cn1c2nc3ccccc3c-2cc2ccccc21 [NEOCRYPTOLEPINE] | 0.051 µg/mL (≈ 0.22 µM) | 0.065 µg/mL (≈ 0.28 µM) | 0.035 µg/mL (≈ 0.151 µM) |  |  |  | 
6 | CCN(CC)CCCC(C)Nc1ccnc2cc(Cl)ccc12 (stereo unspecified) [CHLOROQUINE] |  |  |  |  | 2.2% | 1.65% | 
7 | c1ccc2nc3c(cc2c1)[nH]c1ccccc13 [QUINDOLINE] | 0.087 µg/mL (≈ 0.399 µM) | 0.108 µg/mL (≈ 0.495 µM) | 0.063 µg/mL (≈ 0.289 µM) | 48.2% |  |  | 42.1%
8 | C[n+]1c2ccccc2cc2[n-]c3ccccc3c21 [CRYPTOLEPINE] | 0.033 µg/mL (≈ 0.142 µM) | 0.041 µg/mL (≈ 0.177 µM) | 0.027 µg/mL (≈ 0.116 µM) | 45.4% |  |  | 13.7%
9 | C[n+]1c2ccccc2cc2[n-]c3ccccc3c21.Cl [CRYPTOLEPINE HYDROCHLORIDE] | 0.062 µg/mL | 0.052 µg/mL | 0.041 µg/mL | 15.6% |  |  | 10.8%
